Experimental data reported in ChEMBL document CHEMBL2439965, “Dialkylimidazole inhibitors of Trypanosoma cruzi sterol 14α-demethylase as anti-Chagas disease agents” (Bioorg Med Chem Lett, 2013).

Tests used:
physchem = conditions: octanol/water
Description: Lipophilicity, log P of the compound

Trypanosoma cruzi = assay: microbe, parasite or virus in culture; conditions: Tulahuen, NIH3T3, 168 h
Description: Antitrypanosomal activity against Trypanosoma cruzi Tulahuen infected in 3T3 cells after 7 days by beta-galactosidase assay

[1] = Cytotoxicity against human CRL8155 cells; type: cell-based

SMILES	logP (physchem)	EC50 (Trypanosoma cruzi) [nM]	IC50 [1] [nM]
Cc1ccc(-c2ccc(Cn3cncc3CNc3ccc(-c4nc5ccccc5s4)c(-c4ccccc4)c3)cc2)cc1	8.9	50	–
c1ccc(-c2ccc(Cn3cncc3CNc3ccc(-c4nc5ccccc5s4)c(-c4ccccc4)c3)cc2)cc1	8.4	20	–
Fc1ccc(NCc2cncn2Cc2cccc3cc[nH]c23)cc1-c1ccccc1	4.8	333	–
Nc1cc(-c2ccccc2)ccc1Cn1cncc1CNc1ccc(F)cc1	3.8	1.1	–
Clc1ccc(NCc2cncn2Cc2ccc(-c3ccccc3)cc2)cc1-n1cccc1	5.6	30.4	–
Oc1ccc(-c2cc(NCc3cncn3Cc3ccc(-c4ccccc4)cc3)ccc2-c2nc3ccccc3s2)cc1	8.1	11	20000
Nc1cc(-c2ccccc2)ccc1Cn1cncc1CNc1ccc(Cl)c(N2CCCCC2)c1	5.3	1.1	> 5000
CC1CCN(CCOc2ccc(NCc3cncn3Cc3ccc(-c4ccccn4)cc3N)cc2-c2ccccc2)CC1	5.1	5.8	5270
Nc1cc(-c2ccccc2)ccc1Cn1cncc1CNc1ccc(Cl)c(-n2ccnc2)c1	3.5	5	14600
Nc1cc(-c2ccccc2)ccc1Cn1cncc1CNc1ccc(-c2nc3ccccc3s2)c(-c2ccccc2)c1	7.6	1	–
Nc1cc(-c2ccccc2)ccc1Cn1cncc1CNc1ccc(Cl)c(-c2ccccc2N2CCOCC2)c1	5.9	24.5	–
COc1cc(-c2ccccc2)ccc1Cn1cncc1CNc1ccc(-c2nc3ccccc3s2)c(-c2ccccc2)c1	8.2	27.2	–
Cc1ncc(CNc2ccc(F)c(F)c2)n1Cc1ccc(-c2ccccc2)cc1N	4.1	> 1000	–
Nc1cc(-c2ccccc2)ccc1Cn1cncc1CNc1ccc(F)c(Cl)c1	4.3	1.2	–
Cc1ccc(NCc2cncn2Cc2ccc(-c3ccccc3)cc2)cc1-c1c(F)cccc1F	7	36.6	–
Fc1ccc(NCc2cncn2Cc2ccc(-c3ccccc3)cc2F)cc1Cl	5.4	49	–
c1ccc(-c2ccc(Cn3cncc3CNc3ccc(NCCN4CCOCC4)c(-c4ccccc4)c3)cc2)cc1	5.9	115	–
Fc1ccc(NCc2cncn2Cc2ccc(-c3ccccc3)cc2)cc1-c1c(F)cccc1F	6.6	11.7	17500
Cc1cc(NCc2cncn2Cc2ccc(F)cc2F)ccc1F	3.8	272	–
Clc1ccc(NCc2cncn2Cc2ccc(-c3ccccc3)cc2Cl)cc1	5.7	83.2	–
Nc1ccc(-c2cc(NCc3cncn3Cc3ccc(-c4ccccc4)cc3)ccc2-c2nc3ccccc3s2)cc1	7.6	1.6	27500
Cc1ccc(NCc2cncn2Cc2ccc(-c3ccccc3)cc2N)cc1-c1c(F)cccc1F	6.2	0.4	> 5000
Nc1cc(-c2ccccc2)ccc1Cn1cncc1CNc1ccc(F)c(F)c1	4	3.2	–
c1ccc(-c2cc(NCc3cncn3Cc3ccc(-c4cccs4)cc3)ccc2-c2nc3ccccc3s2)cc1	8.2	11.1	–
c1ccc(-c2ccc(Cn3cncc3CNc3ccc(OCCN4CCOCC4)c(-c4ccccc4)c3)cc2)cc1	5.9	35.2	–
Clc1ccc(-c2ccc(Cn3cncc3CNc3ccc(-c4nc5ccccc5s4)c(-c4ccccc4)c3)cc2)cc1	9	48.5	–

SMILES	logP (physchem)	EC50 (Trypanosoma cruzi) [nM]	IC50 [1] [nM]
Nc1cc(-c2ccccc2)ccc1Cn1cncc1CNc1ccc(F)c(-c2c(F)cccc2F)c1	5.8	0.4	–
c1ccc(-c2cc(NCc3cncn3Cc3ccc(-c4ccco4)cc3)ccc2-c2nc3ccccc3s2)cc1	7.4	21.2	–
c1ccc(-c2ccc(Cn3cncc3CNc3ccc(NCCN4CCCCC4)c(-c4ccccc4)c3)cc2)cc1	6.6	194	10700
COc1cc(-c2ccccc2)ccc1Cn1cncc1CNc1ccc(Cl)c(-c2ccccc2)c1	6.6	35.1	–
Cc1cccc(-c2ccc(Cn3cncc3CNc3ccc(-c4nc5ccccc5s4)c(-c4ccccc4)c3)cc2)c1	8.9	5.4	–
Nc1cc(-c2ccccc2)ccc1Cn1cncc1CNc1ccc(OCCN2CCOCC2)c(-c2ccc(Cl)cc2)c1	–	1.5	–
COc1ccc(NCc2cncn2Cc2ccccc2)nc1-c1ccccc1	4.2	686	–
Cc1cc(NCc2cncn2Cc2ccc(-c3ccccc3)cc2N)ccc1Cl	4.4	0.6	12900
Fc1ccc(NCc2cncn2Cc2ccc(F)cc2F)cc1	3.3	354	–
COc1ccc(-c2cc(NCc3cncn3Cc3ccc(-c4ccccc4)cc3)ccc2-c2nc3ccccc3s2)cc1	8.2	10	–
Cc1ncc(CNc2ccc(F)c(Cl)c2)n1Cc1ccc(-c2ccccc2)cc1N	4.6	> 1000	–
Clc1ccc(NCc2cncn2Cc2cccc3cc[nH]c23)cc1-c1ccccc1	5.2	333	–
Clc1ccc(NCc2cncn2Cc2ccc(-c3ccccc3)cc2)cc1-c1ccncc1	5.6	27.2	–
Oc1ccccc1-c1ccc(Cn2cncc2CNc2ccc(-c3nc4ccccc4s3)c(-c3ccccc3)c2)cc1	8.1	123	–
Cc1cc(NCc2cncn2Cc2ccc(-c3ccccc3)cc2Cl)ccc1F	5.8	26	–
Cc1cc(NCc2cnc(C)n2Cc2ccc(-c3ccccc3)cc2N)ccc1F	4.5	> 1000	–
Oc1cc(-c2ccccc2)ccc1Cn1cncc1CNc1ccc(-c2nc3ccccc3s2)c(-c2ccccc2)c1	8	89.3	–
Fc1cc(-c2ccccc2)ccc1Cn1cncc1CNc1ccc(F)c(-c2ccccc2)c1	6.5	12	–
Nc1cc(-c2ccccc2)ccc1Cn1cncc1CNc1ccc(F)c(-c2ccccc2)c1	5.5	0.8	18800
Nc1cc(N2CCOCC2)ccc1Cn1cncc1CNc1ccc(F)c(F)c1	2.2	358	–
Fc1ccc(NCc2cncn2Cc2ccc(-c3ccccc3)cc2F)cc1F	5	46	–
CC[C@@H]([C@H](C)O)n1ncn(-c2ccc(N3CCN(c4ccc(OC[C@@H]5CO[C@@](Cn6cncn6)(c6ccc(F)cc6F)C5)cc4)CC3)cc2)c1=O [POSACONAZOLE]	–	< 1	–
COc1ccc(NCc2cncn2Cc2ccc(-c3ccccc3)cc2)nc1-c1ccccc1	5.8	12.5	–
N#Cc1ccc(-c2cc(NCc3cncn3Cc3ccc(-c4ccccc4)cc3)ccc2-c2nc3ccccc3s2)cc1	8.2	32	–
c1ccc(-c2ccc(Cn3cncc3CNc3ccc(OCCN4CCCCC4)c(-c4ccccc4)c3)cc2)cc1	6.9	317	–
CCN1CCC(Cn2cncc2CNc2ccc(Cl)c(-c3ccccc3)c2)CC1	4.3	> 1000	17400

SMILES	logP (physchem)	EC50 (Trypanosoma cruzi) [nM]	IC50 [1] [nM]
COc1ccc(Cn2cncc2CNc2ccc(F)c(-c3ccccc3)c2)c(N)c1	4.7	14.5	–
O=C(O)c1cc(-c2ccccc2)ccc1Cn1cncc1CNc1ccc(-c2nc3ccccc3s2)c(-c2ccccc2)c1	7.2	> 1000	–
Fc1ccc(NCc2cncn2Cc2ccc(-c3ccccc3)cc2Cl)cc1Cl	5.9	48.7	–
Nc1cc(Cl)ccc1Cn1cncc1CNc1ccc(-c2nc3ccccc3s2)c(-c2ccccc2)c1	–	1.4	–
c1ccc(-c2cc(NCc3cncn3Cc3ccc(-c4ccccn4)cc3)ccc2-c2nc3ccccc3s2)cc1	7.5	19.3	–
Clc1ccc(NCc2cncn2Cc2ccc(-c3ccccc3)cc2)cc1-c1cccnc1	5.6	64.8	–
Fc1ccc(Cn2cncc2CNc2ccc(F)c(F)c2)c(F)c1	3.5	212	–
Fc1ccc(NCc2cncn2Cc2ccc(-c3ccccc3)cc2Cl)cc1F	5.4	38.1	–
Cc1ncc(CNc2ccc(F)cc2)n1Cc1ccc(-c2ccccc2)cc1N	4	> 1000	–
Nc1cc(-c2ccccc2)ccc1Cn1cncc1CNc1ccc(Cl)c(-c2ccccc2N2CCCC2)c1	6.5	87	–
Nc1cc(-c2ccccc2)ccc1Cn1cncc1CNc1ccc(Cl)c(-c2ccccc2N2CCCCC2)c1	4.7	20.8	–
Clc1ccc(NCc2cncn2CC2CCNCC2)cc1-c1ccccc1	3.5	> 1000	–
Nc1ccccc1Cn1cncc1CNc1ccc(F)c(-c2ccccc2)c1	3.8	233	–
Fc1ccc(NCc2cncn2Cc2ccc(-c3ccccc3)cc2F)cc1	4.8	70.2	–
Nc1ccccc1-c1ccc(Cn2cncc2CNc2ccc(-c3nc4ccccc4s3)c(-c3ccccc3)c2)cc1	7.6	75.4	–
CC1CCN(CCOc2ccc(NCc3cncn3Cc3ccc(-c4ccccc4)cc3)cc2-c2ccccc2)CC1	5.9	97.4	4470
Nc1cc(-c2ccccc2)ccc1Cn1cncc1CNc1ccc(Cl)cc1	4.3	2.1	–
Clc1ccc(NCc2cncn2Cc2ccc(-c3ccccc3)cc2)cc1N1CCCCC1	6.1	53.6	–
Nc1cc(Cl)ccc1Cn1cncc1CNc1ccc(F)c(-c2ccccc2)c1	4.5	12.8	–
Oc1cc(-c2ccccc2)ccc1Cn1cncc1CNc1ccc(Cl)c(-c2ccccc2)c1	6.5	5.9	21500
Cc1cc(NCc2cncn2Cc2ccc(-c3ccccc3)cc2F)ccc1F	5.3	53	–
Nc1cc(-c2ccccc2)ccc1Cn1cncc1CNc1ccc(Cl)c(Cl)c1	5	9	–
Nc1ccc(-c2cc(NCc3cncn3Cc3ccc(-c4ccccc4)cc3N)ccc2Cl)cc1	5.1	0.3	12900
Nc1cc(-c2ccccc2)ccc1Cn1cncc1CNc1ccc(Cl)c(-n2cccc2)c1	4.8	3.8	–
